Among the data in patent US6699860B2, “Di-substituted aminomethyl-chroman derivative beta-3 adrenoreceptor agonists” (Bayer Pharmaceuticals Corporation, priority 2000, dated 2004) are melting point and EC50 values, retold here.

Where a name gives a salt, the structure may show the parent alone.

The target in series [1] is T1, human beta-3-adrenergic receptor (Homo sapiens, UniProt P13945).
T1 construct: Chinese hamster ovary (CHO) cells that stably express full-length human beta-3-adrenergic receptor; expressed in transfected cells
T1 sequence (P13945 whole entry): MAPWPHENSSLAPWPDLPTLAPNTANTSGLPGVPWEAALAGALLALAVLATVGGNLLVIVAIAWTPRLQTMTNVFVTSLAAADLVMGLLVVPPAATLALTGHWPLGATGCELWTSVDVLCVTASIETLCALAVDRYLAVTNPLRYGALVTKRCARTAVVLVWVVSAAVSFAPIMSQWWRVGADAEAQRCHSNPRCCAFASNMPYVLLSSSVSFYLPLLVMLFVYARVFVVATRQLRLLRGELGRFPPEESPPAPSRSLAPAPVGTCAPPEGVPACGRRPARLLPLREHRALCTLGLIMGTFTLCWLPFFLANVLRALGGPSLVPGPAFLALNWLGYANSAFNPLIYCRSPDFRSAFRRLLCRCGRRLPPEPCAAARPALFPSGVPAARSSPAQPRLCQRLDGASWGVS
Briefly: cAMP production (SPA) in CHO cells stably expressing human beta-3-adrenergic receptor, agonist activity. The format is cell-based. The following applies: cAMP production in CHO cells expressing human beta-3-adrenergic receptor; compounds binned (≦1 μM or >1 μM); read-out: Beta-3 Agonistic Activity, EC50 values. The protocol:
The cell line is grown in 90% F12 nutrient mixture (HAM), 10% fetal bovine serum, 100 units/ml penicillin G sodium, […] streptomycin sulfate, and 2 mM L-glutamine at 37° C. in 95% air and 5% CO2. The transfected cell line is maintained with G418 (800ug/ml).
To test agonist activity, cells are exposed to test compound and then assayed for cAMP production. […] Test compounds are assayed from 10 μM to 3 nM with 3-fold serial dilutions. The control agonist, isoproterenol (10 mM stock in 1.1 mM ascorbate), is assayed by 3-fold dilution beginning at 1 μM. Following a 30-minute incubation with the test compounds, the buffer/compound mixture is removed. […] The cAMP values are then plotted to ascertain the EC50 of each compound tested.

As usually defined, the melting point is the temperature of the solid-liquid transition. Take `O=C(O)c1ccc(-c2ccc3c(c2)CC[C@H](CNC[C@H](O)COc2ccccc2)O3)cc1` (as salt: hydrochloride) [Example 142, 4-[(2R)-2-({[(2S)-2-Hydroxy-3-phenoxyropyl]amino}methyl)-3,4-dihydro-2H-chromen-6-yl]benzoic acid]: the melting point is 250 °C.

By EC50 is commonly meant the concentration at which the effect is half-maximal. In the case of `CCc1ccc(SC[C@@H](O)CNC[C@H]2CCc3cc(-c4ccc(C(=O)O)cc4)ccc3O2)cc1` [Example 170], the EC50 in series [1] is > 1000 nM.

`COC(=O)c1ccc(-c2ccc3c(c2)CC[C@H](CNC[C@H](O)COc2cccc4[nH]c5ccccc5c24)O3)cc1` [Example 102]: the EC50 in series [1] was > 1000 nM.

Consider `O=C(O)c1ccc(-c2ccc3c(c2)CC[C@H](CNC[C@H](O)COc2ccccc2)O3)cc1NC1CCCCC1` [Example 197], for which the half-maximal effective concentration (EC50) in series [1] is ≤ 1000 nM.

Regarding `Nc1cc(-c2ccc3c(c2)CC[C@H](CNC[C@H](O)COc2ccccc2)O3)ccc1C(=O)O` [Example 198], the 50% effective concentration (EC50) in series [1] is ≤ 1000 nM.

Take `CCOc1cc(-c2ccc3c(c2)CC[C@H](CNC[C@H](O)COc2ccccc2)O3)ccc1C(=O)O` [Example 207]: the EC50 in series [1] is ≤ 1000 nM.

`O=C(O)c1ccc(-c2ccc3c(c2)CC[C@H](CNC[C@H](O)COc2ccccc2O)O3)cc1` [Example 164]: in series [1], the concentration for a half-maximal effect (EC50) is ≤ 1000 nM.

Take `O=C(O)c1ccc(-c2ccc3c(c2)CC[C@H](CNCC(O)COc2ccccc2-c2ccccc2)O3)cc1` (stereo partly shown) [Example 239]: in series [1], the EC50 is ≤ 1000 nM.

Turning to `Cc1cc(C)c(OCC(O)CNC[C@H]2CCc3cc(-c4ccc(C(=O)O)cc4)ccc3O2)c(C)c1` (stereo partly shown) [Example 222], the EC50 in series [1] was > 1000 nM.

As for `O=C(O)c1ccc(-c2ccc3c(c2)CC[C@H](CNC[C@H](O)CSc2ccc(C(F)(F)F)cc2)O3)cc1` [Example 181], the EC50 in series [1] was > 1000 nM.

As to `CC(C)c1nc(-c2ccc3c(c2)CC[C@H](CNC[C@H](O)COc2ccccc2)O3)sc1C(=O)O` [Example 190], in series [1], the EC50 was ≤ 1000 nM.

Turning to `COC(=O)c1cc(-c2ccc3c(c2)CC[C@H](CNC[C@H](O)COc2ccccc2)O3)cs1` [Example 133], the EC50 in series [1] was ≤ 1000 nM.

Regarding `CCOC(=O)c1nn(C)c(C)c1-c1ccc2c(c1)CC[C@H](CNC[C@H](O)COc1ccccc1)O2` [Example 131], the EC50 in series [1] was ≤ 1000 nM.

With `COCCOc1cc(-c2ccc3c(c2)CC[C@H](CNC[C@H](O)COc2ccccc2)O3)ccc1C(=O)O` [Example 210], in series [1], the EC50 was ≤ 1000 nM.

`O=C(O)c1ccc(-c2ccc3c(c2)CC[C@H](CNCC(O)COc2ccccc2Cl)O3)cc1` (stereo partly shown) [Example 234]: the EC50 in series [1] is ≤ 1000 nM.

As for `COC(=O)c1ccc(-c2ccc3c(c2)CC[C@H](CNC[C@H](O)COc2ccccc2)O3)cc1` [Example 84, Methyl 4-[(2R)-2-({[(2S)-2-hydroxy-3-phenoxypropyl]amino}methyl)-3,4-dihydro-2H-chromen-6-yl]benzoate], the EC50 in series [1] was ≤ 1000 nM.

Take `CC(C)Oc1cc(-c2ccc3c(c2)CC[C@H](CNC[C@H](O)COc2ccccc2)O3)ccc1C(=O)O` [Example 211]: the half-maximal effective concentration (EC50) in series [1] was ≤ 1000 nM.

Regarding `CCOC(=O)c1sc(-c2ccc3c(c2)CC[C@H](CNC[C@H](O)COc2ccccc2)O3)nc1-c1ccccc1` [Example 136], in series [1], the EC50 was > 1000 nM.

With `CCOC(=O)c1sc(-c2ccc3c(c2)CC[C@H](CNC[C@H](O)COc2ccccc2)O3)nc1C(C)C` [Example 137], in series [1], the 50% effective concentration (EC50) is > 1000 nM.

Regarding `O=C(O)c1ccc(-c2ccc3c(c2)CC[C@H](CNC[C@H](O)COc2ccccc2)O3)cc1N1CCCCC1` [Example 202], the EC50 in series [1] was ≤ 1000 nM.

Consider `COc1cccc(SC[C@@H](O)CNC[C@H]2CCc3cc(-c4ccc(C(=O)O)cc4)ccc3O2)c1` [Example 178], for which the EC50 in series [1] is > 1000 nM.

`O=C(O)CCc1ccc2c(c1)CC[C@H](CNC[C@H](O)COc1ccccc1F)O2` [Example 265, 3-[(2R)-2-({[(2S)-3-(2-Fluorophenoxy)-2-hydroxypropyl]amino}methyl)-3,4-dihydro-2H-chromen-6-yl]propanoic acid]: the EC50 in series [1] is ≤ 1000 nM.

With `O=C(O)c1cc(-c2ccc3c(c2)CC[C@H](CNC[C@H](O)COc2ccccc2)O3)cs1` [Example 183], the EC50 in series [1] is ≤ 1000 nM.

With `COC(=O)c1csc(-c2ccc3c(c2)CC[C@H](CNC[C@H](O)COc2ccccc2)O3)c1` [Example 132], the EC50 in series [1] is ≤ 1000 nM.

Consider `O=C(O)c1ccc(-c2ccc3c(c2)CCC(CNC[C@H](O)COc2ccccc2)O3)cc1O` (stereo in doubt) [Example 213, 2-hydroxy-4-[(2S)-2-({[(2S)-2-hydroxy-3-phenoxypropyl]amino}methyl)-3,4-dihydro-2H-chromen-6-yl]benzoic acid], for which, in series [1], the concentration giving a half-maximal response (EC50) was ≤ 1000 nM.
